Laboratory results: PMC9571063 (Molecules, 2022)
pIC50: −log10 of the molar value. “And” between values parts separate entries of the source, which are not always exact repeats. Equal values may be shown once. Where a name gives a salt, the structure may show the parent alone. Read-outs that look alike come from different tables or passages of the source.

Assays:
[1] = test system: Human skin fibroblasts; assay: cytotoxic assay, nuclei count (Hoechst, HCS); assay type: cell-based; settings: summary of Table S2
[2] = target: T1, HsCLK4 (Homo sapiens, UniProt Q9HAZ1); assay: kinase inhibition study by Eurofins; assay type: biochemical
T1 construct: purchased Eurofins (contract assay)
Method: (§1) Several inhibition studies for human kinases (HsCLK2, HsCLK3, HsCLK4), as well as the KINOMEscan^SM Assaywere performed by the Eurofins company, following protocols reported on their website.

[3] = target: T2, HsCLK3 (Homo sapiens, UniProt P49761); assay: kinase inhibition study by Eurofins; assay type: biochemical; settings: duplicate
T2 construct: purchased Eurofins (contract assay)
Method: as §1

[4] = target: T3, HsCLK2 (Homo sapiens, UniProt P49760); assay: kinase inhibition study by Eurofins; assay type: biochemical; settings: duplicate
T3 construct: purchased Eurofins (contract assay)
Method: as §1

[5] = cytotoxic assay, nuclei count (Hoechst, HCS); assay type: cell-based; settings: human, MDA-MB-231 cells (breast carcinoma); 48 h treatment; read-out: Cytotoxic studies IC50 MDA-MB-231
[6] = cytotoxic assay, nuclei count (Hoechst, HCS); assay type: cell-based; settings: human, 48 h treatment
[7] = target: T4, TLK2 (Homo sapiens, UniProt Q86UE8); assay: KINOMEscan; assay type: binding; settings: read-out: Percent Control
T4 construct: purchased Eurofins DiscoverX KINOMEscan (scanMAX 468)

[8] = target: T5, GRK2 (Homo sapiens, UniProt P25098); assay: KINOMEscan; assay type: binding; settings: read-out: Percent Control
T5 construct: purchased Eurofins DiscoverX KINOMEscan (scanMAX 468)

[9] = target: T6, PRKCH (Homo sapiens, UniProt P24723); assay: KINOMEscan; assay type: binding; settings: read-out: Percent Control
T6 construct: purchased Eurofins DiscoverX KINOMEscan (scanMAX 468)

[10] = target: T7, RET(M918T) (Homo sapiens, UniProt P07949, M918T); assay: KINOMEscan; assay type: binding; settings: read-out: Percent Control
T7 construct: purchased Eurofins DiscoverX KINOMEscan (scanMAX 468)

[11] = target: T8, EGFR (Homo sapiens, UniProt P00533); assay: KINOMEscan; assay type: binding; settings: read-out: Percent Control
T8 construct: purchased Eurofins DiscoverX KINOMEscan (scanMAX 468)

[12] = target: T9, ROCK1 (Homo sapiens, UniProt Q13464); assay: KINOMEscan; assay type: binding; settings: read-out: Percent Control
T9 construct: purchased Eurofins DiscoverX KINOMEscan (scanMAX 468)

[13] = target: T10, SRPK2 (Homo sapiens, UniProt P78362); assay: KINOMEscan; assay type: binding; settings: read-out: Percent Control
T10 construct: purchased Eurofins DiscoverX KINOMEscan (scanMAX 468)

[14] = target: T11, DDR2 (Homo sapiens, UniProt Q16832); assay: KINOMEscan; assay type: binding; settings: read-out: Percent Control
T11 construct: purchased Eurofins DiscoverX KINOMEscan (scanMAX 468)

[15] = target: T12, CAMKK2 (Homo sapiens, UniProt Q96RR4); assay: KINOMEscan; assay type: binding; settings: read-out: Percent Control
T12 construct: purchased Eurofins DiscoverX KINOMEscan (scanMAX 468)

[16] = target: T13, ACVR1 (Homo sapiens, UniProt Q04771); assay: KINOMEscan; assay type: binding; settings: read-out: Percent Control
T13 construct: purchased Eurofins DiscoverX KINOMEscan (scanMAX 468)

[17] = target: T14, ZAK (Homo sapiens, UniProt Q9NYL2); assay: KINOMEscan; assay type: binding; settings: read-out: Percent Control
T14 construct: purchased Eurofins (KINOMEscan, DiscoverX)

[18] = target: T15, AAK1 (Homo sapiens, UniProt Q2M2I8); assay: KINOMEscan; assay type: binding; settings: read-out: Percent Control
T15 construct: purchased Eurofins DiscoverX KINOMEscan (scanMAX 468)

[19] = target: T16, CDK2 (Homo sapiens, UniProt P24941); assay: KINOMEscan; assay type: binding; settings: read-out: Percent Control
T16 construct: purchased Eurofins DiscoverX KINOMEscan (scanMAX 468)

[20] = target: T17, PIK3CA(I800L) (Homo sapiens, UniProt P42336, I800L); assay: KINOMEscan; assay type: binding; settings: read-out: Percent Control
T17 construct: purchased Eurofins DiscoverX KINOMEscan (scanMAX 468)

[21] = target: T18, MKNK2 (Homo sapiens, UniProt Q9HBH9); assay: KINOMEscan; assay type: binding; settings: read-out: Percent Control
T18 construct: purchased Eurofins DiscoverX KINOMEscan (scanMAX 468)

[22] = target: T19, WEE2 (Homo sapiens, UniProt P0C1S8); assay: KINOMEscan; assay type: binding; settings: read-out: Percent Control
T19 construct: purchased Eurofins DiscoverX KINOMEscan (scanMAX 468)

[23] = target: T20, LTK (Homo sapiens, UniProt P29376); assay: KINOMEscan; assay type: binding; settings: read-out: Percent Control
T20 construct: purchased Eurofins DiscoverX KINOMEscan (scanMAX 468)

[24] = target: T21, TXK (Homo sapiens, UniProt P42681); assay: KINOMEscan; assay type: binding; settings: read-out: Percent Control
T21 construct: purchased Eurofins DiscoverX KINOMEscan (scanMAX 468)

[25] = target: T22, TBK1 (Homo sapiens, UniProt Q9UHD2); assay: KINOMEscan; assay type: binding; settings: read-out: Percent Control
T22 construct: purchased Eurofins DiscoverX KINOMEscan (scanMAX 468)

[26] = target: T23, PHKG1 (Homo sapiens, UniProt Q16816); assay: KINOMEscan; assay type: binding; settings: read-out: Percent Control
T23 construct: purchased Eurofins DiscoverX KINOMEscan (scanMAX 468)

[27] = target: T24, MUSK (Homo sapiens, UniProt O15146); assay: KINOMEscan; assay type: binding; settings: read-out: Percent Control
T24 construct: purchased Eurofins DiscoverX KINOMEscan (scanMAX 468)

[28] = HCT116 cells (colorectal adenocarcinoma), read-out: Cytotoxic studies IC50 HCT116
[29] = MDA-MB-468 cells (breast carcinoma), read-out: Cytotoxic studies IC50 MDA-MB-468

T3 sequence (P49760 whole entry): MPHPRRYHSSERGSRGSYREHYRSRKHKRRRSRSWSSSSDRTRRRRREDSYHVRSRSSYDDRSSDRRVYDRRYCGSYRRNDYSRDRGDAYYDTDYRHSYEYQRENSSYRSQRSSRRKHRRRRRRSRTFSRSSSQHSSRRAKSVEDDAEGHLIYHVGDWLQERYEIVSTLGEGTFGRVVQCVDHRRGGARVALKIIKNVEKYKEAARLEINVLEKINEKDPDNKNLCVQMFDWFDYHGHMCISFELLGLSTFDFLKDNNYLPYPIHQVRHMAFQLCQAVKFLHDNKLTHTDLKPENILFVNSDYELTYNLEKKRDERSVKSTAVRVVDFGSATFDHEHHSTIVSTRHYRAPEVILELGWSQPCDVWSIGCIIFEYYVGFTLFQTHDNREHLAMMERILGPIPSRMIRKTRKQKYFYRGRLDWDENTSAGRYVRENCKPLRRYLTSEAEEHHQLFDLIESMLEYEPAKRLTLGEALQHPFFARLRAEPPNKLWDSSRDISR
T1 sequence (Q9HAZ1 whole entry): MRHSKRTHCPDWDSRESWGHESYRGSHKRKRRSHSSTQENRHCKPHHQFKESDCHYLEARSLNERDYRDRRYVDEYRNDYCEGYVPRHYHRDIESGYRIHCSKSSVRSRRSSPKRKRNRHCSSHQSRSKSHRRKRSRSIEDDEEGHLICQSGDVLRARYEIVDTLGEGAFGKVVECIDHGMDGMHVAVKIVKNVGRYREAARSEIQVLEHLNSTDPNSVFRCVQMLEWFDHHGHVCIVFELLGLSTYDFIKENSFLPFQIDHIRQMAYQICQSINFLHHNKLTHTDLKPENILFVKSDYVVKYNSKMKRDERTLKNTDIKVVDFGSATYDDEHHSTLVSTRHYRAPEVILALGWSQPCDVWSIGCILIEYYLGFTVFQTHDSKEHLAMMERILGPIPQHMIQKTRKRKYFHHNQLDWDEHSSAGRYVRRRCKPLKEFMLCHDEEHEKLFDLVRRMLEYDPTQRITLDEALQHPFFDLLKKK
T2 sequence (P49761 whole entry): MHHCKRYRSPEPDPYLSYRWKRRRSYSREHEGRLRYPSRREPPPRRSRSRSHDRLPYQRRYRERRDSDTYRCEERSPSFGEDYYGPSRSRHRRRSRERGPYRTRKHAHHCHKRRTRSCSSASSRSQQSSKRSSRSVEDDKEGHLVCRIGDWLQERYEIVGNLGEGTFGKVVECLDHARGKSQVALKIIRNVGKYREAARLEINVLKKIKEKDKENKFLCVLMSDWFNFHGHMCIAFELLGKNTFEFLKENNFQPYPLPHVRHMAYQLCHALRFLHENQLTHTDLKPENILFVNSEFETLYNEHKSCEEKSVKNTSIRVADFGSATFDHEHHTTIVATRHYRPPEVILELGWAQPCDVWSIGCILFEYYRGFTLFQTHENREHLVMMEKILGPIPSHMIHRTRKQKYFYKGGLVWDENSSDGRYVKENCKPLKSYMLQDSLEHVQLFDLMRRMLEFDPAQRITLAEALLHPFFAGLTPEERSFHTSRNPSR
T15 sequence (Q2M2I8 whole entry): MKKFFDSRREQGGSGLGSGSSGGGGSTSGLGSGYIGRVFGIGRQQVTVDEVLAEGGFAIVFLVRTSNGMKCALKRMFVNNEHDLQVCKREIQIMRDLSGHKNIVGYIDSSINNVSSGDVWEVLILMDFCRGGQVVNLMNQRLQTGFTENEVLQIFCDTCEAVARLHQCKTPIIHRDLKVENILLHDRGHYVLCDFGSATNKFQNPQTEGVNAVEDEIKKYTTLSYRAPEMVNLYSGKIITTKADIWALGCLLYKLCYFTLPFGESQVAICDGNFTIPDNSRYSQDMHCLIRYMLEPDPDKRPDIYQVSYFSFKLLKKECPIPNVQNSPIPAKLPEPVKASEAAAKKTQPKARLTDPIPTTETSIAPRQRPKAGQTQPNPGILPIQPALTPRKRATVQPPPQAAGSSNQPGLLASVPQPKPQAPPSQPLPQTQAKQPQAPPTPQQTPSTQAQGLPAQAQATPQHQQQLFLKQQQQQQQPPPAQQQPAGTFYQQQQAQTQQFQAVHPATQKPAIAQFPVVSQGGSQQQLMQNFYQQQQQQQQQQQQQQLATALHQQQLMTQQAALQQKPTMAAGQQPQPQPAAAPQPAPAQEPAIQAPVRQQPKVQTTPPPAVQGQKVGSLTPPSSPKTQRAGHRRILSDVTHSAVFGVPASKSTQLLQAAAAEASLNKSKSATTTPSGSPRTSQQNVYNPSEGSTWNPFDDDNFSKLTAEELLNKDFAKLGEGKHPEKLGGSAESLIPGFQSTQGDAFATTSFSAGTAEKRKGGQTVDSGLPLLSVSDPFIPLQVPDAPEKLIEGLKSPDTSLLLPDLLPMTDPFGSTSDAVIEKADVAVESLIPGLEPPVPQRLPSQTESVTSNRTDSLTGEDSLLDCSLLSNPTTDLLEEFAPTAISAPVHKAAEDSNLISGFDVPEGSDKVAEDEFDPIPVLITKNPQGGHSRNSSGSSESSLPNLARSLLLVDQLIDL
T22 sequence (Q9UHD2 whole entry): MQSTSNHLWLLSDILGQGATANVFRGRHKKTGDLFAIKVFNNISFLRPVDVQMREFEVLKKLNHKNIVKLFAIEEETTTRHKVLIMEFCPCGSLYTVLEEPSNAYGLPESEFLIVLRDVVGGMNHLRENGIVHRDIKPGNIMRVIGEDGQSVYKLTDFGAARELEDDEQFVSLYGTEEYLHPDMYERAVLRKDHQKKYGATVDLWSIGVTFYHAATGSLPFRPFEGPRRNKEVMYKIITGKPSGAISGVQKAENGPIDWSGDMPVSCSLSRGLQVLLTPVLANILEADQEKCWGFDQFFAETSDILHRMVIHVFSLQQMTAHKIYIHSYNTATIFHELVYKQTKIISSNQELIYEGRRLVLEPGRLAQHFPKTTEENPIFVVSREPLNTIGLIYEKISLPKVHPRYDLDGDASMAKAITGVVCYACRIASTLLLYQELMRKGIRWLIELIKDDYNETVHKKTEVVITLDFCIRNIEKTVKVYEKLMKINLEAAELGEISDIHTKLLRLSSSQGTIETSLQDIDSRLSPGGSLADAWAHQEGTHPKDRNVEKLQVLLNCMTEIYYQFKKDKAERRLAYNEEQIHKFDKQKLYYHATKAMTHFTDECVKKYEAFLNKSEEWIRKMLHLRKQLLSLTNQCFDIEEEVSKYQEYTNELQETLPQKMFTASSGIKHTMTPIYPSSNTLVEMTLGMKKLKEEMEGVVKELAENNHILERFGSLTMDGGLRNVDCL
T4 sequence (Q86UE8 whole entry): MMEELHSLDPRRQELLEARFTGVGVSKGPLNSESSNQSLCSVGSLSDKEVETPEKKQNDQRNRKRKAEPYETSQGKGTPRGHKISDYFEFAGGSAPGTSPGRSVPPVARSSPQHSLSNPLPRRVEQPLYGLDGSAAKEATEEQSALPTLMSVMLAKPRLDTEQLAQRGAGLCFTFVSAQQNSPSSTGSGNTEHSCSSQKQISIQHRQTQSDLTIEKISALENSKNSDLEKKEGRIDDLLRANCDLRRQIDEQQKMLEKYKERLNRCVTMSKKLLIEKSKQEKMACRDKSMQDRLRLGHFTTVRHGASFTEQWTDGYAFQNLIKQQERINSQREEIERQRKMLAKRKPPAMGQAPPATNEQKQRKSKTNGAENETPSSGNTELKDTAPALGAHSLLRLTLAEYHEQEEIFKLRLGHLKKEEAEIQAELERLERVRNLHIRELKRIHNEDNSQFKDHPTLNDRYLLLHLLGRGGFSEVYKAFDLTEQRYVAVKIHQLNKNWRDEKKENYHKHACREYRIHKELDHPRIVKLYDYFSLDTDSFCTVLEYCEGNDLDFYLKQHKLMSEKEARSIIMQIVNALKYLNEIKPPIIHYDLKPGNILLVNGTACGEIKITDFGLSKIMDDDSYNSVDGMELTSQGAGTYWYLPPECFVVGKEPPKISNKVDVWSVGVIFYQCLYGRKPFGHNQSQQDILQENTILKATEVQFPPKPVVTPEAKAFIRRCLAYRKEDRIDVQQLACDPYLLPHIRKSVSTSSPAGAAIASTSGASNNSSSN
T11 sequence (Q16832 22-855): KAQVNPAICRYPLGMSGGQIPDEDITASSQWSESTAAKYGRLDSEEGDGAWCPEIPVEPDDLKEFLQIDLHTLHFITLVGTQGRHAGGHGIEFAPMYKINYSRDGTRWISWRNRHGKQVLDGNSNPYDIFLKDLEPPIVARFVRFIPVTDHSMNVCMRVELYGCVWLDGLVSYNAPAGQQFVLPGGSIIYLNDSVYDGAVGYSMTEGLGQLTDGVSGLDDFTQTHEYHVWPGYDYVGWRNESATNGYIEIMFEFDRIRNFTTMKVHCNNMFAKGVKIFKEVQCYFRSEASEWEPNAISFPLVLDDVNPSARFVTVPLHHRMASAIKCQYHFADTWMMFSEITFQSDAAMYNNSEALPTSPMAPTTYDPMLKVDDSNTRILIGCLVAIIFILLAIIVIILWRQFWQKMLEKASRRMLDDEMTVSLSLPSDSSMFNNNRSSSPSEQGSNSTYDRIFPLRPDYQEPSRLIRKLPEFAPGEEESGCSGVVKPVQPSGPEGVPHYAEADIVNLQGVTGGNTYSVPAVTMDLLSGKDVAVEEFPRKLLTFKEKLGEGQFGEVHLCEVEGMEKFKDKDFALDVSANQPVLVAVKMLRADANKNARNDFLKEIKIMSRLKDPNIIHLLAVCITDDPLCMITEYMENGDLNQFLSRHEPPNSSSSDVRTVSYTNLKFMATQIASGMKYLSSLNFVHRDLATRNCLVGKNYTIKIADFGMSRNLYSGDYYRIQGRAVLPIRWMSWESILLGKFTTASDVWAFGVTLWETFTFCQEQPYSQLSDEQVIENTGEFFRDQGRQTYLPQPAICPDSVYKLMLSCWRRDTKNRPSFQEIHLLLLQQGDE

SMILES: Cc1ccc(-n2cc(COc3cccc4cnc(Nc5cc(Cl)cc(Cl)c5)nc34)nn2)c([N+](=O)[O-])c1 [7b, N-(3,5-dichlorophenyl)-8-((1-(4-methyl-2-nitrophenyl)-1H-1,2,3-triazol-4-yl)methoxy)quinazolin-2-amine]
- toxicity towards fibroblasts [1]: non-toxic
- pIC50 ([2]; duplicate): 6.42
- pIC50 [3]: 5.48
- pIC50 [4]: 7.01
- IC50 at 48 h [5]: > 25 µM
- IC50 at 48 h [6, 28]: > 25 µM
- IC50 at 48 h [6, 29]: > 25 µM

SMILES: O=[N+]([O-])c1cc(Br)ccc1-n1cc(COc2cccc3cnc(Nc4cccc(Cl)c4)nc23)nn1 [12d, N-(3-Chlorophenyl)-8-((1-(4-bromo-2-nitrophenyl)-1H-1,2,3-triazol-4-yl)methoxy)quinazolin-2-amine]
- toxicity towards fibroblasts [1]: moderate toxicity
- IC50 at 48 h [5]: > 25 µM
- IC50 at 48 h [6, 28]: > 25 µM
- IC50 at 48 h [6, 29]: > 25 µM

SMILES: O=[N+]([O-])c1cc(CO)ccc1-n1cc(COc2cccc3cnc(Nc4cccc(Cl)c4)nc23)nn1 [12e, 4-(4-(((2-((3-Chlorophenyl)amino)quinazolin-8-yl)oxy)methyl)-1H-1,2,3-triazol-1-yl)-3-nitrobenzyl alcohol]
- toxicity towards fibroblasts [1]: moderate toxicity
- pIC50 [2]: 6.70 to 6.82
- pIC50 ([2]; duplicate): 6.71
- pIC50 [3]: 5.12 and 5.13
- pIC50 [4]: 7.30
- IC50 at 48 h [5]: 6 µM
- IC50 at 48 h [6, 28]: 3 µM
- IC50 at 48 h [6, 29]: 4 µM

SMILES: COC(=O)c1ccc(-n2cc(COc3cccc4cnc(Nc5cccc(Cl)c5)nc34)nn2)c([N+](=O)[O-])c1 [12f, Methyl 4-(4-(((2-((3-chlorophenyl)amino)quinazolin-8-yl)oxy)methyl)-1H-1,2,3-triazol-1-yl)-3-nitrobenzoate]
- toxicity towards fibroblasts [1]: non-active
- IC50 at 48 h [5]: > 25 µM
- IC50 at 48 h [6, 28]: > 25 µM
- IC50 at 48 h [6, 29]: > 25 µM

SMILES: O=C(O)c1ccc(-n2cc(COc3cccc4cnc(Nc5cccc(Cl)c5)nc34)nn2)c([N+](=O)[O-])c1 [12g, 4-(4-(((2-((3-Chlorophenyl)amino)quinazolin-8-yl)oxy)methyl)-1H-1,2,3-triazol-1-yl)-3-nitrobenzoic acid]
- toxicity towards fibroblasts [1]: non-active
- pIC50 ([2]; duplicate): 7.26
- pIC50 [3]: 6.47
- pIC50 [4]: 7.55
- IC50 at 48 h [5]: > 25 µM
- IC50 at 48 h [6, 28]: > 25 µM
- IC50 at 48 h [6, 29]: > 25 µM

SMILES: N[C@H]1CC[C@@H](n2cc(COc3cccc4cnc(Nc5cc(Cl)cc(Cl)c5)nc34)nn2)CC1 [16b, 8-((1-((cis)-4-Aminocyclohexyl)-1H-1,2,3-triazol-4-yl)methoxy)-N-(3,5-dichlorophenyl)quinazolin-2-amine hydrochloride]
- pIC50 ([2]; duplicate): 7.08
- pIC50 [3]: 5.49
- pIC50 [4]: 7.70
- IC50 at 48 h [5]: 2 µM
- IC50 at 48 h [6, 28]: 2.4 µM
- IC50 at 48 h [6, 29]: 1 µM

SMILES: Cc1ccc(-n2cc(COc3cccc4cnc(Nc5cccc(Cl)c5)nc34)nn2)c([N+](=O)[O-])c1 [DB18]
- remaining binding at 1 µM [7]: 100%
- remaining binding at 1 µM [8]: 94%
- remaining binding at 1 µM [9]: 100%
- remaining binding at 1 µM [10]: 100%
- remaining binding at 1 µM [11]: 97%
- remaining binding at 1 µM [12]: 100%
- remaining binding at 1 µM [13]: 87%
- remaining binding at 1 µM [14]: 100%
- remaining binding at 1 µM [15]: 100%
- remaining binding at 1 µM [16]: 100%
- remaining binding at 1 µM [17]: 97%
- remaining binding at 1 µM [18]: 100%
- remaining binding at 1 µM [19]: 100%
- remaining binding at 1 µM [20]: 77%
- remaining binding at 1 µM [21]: 100%
- remaining binding at 1 µM [22]: 100%
- remaining binding at 1 µM [23]: 80%
- remaining binding at 1 µM [24]: 96%
- remaining binding at 1 µM [25]: 91%
- remaining binding at 1 µM [26]: 100%
- remaining binding at 1 µM [27]: 100%
